Assay results published in patent US20240400555A1 (Initial Therapeutics, Inc., priority 2023, published 2024).
pIC50: −log10 of the molar value. Where two headings read alike, the source gives them in different places.

Tested on: MV-4-11 cells
Assay: Cell Viability Assay in MV-4-11 Cells
Format: cell-based
Conditions: Homo sapiens, MV4-11, 72 h
Summary of the method: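 MV-4-11 cells at 7,000/well in IMDM with 10% FBS, exposed to compound for 72 h. Viability by CellTiter-Glo luminescence, normalized to DMSO as 100%, fitted with a four-parameter curve.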

[1] = MV-4-11 cells, 72 h, Cell-Titer Glo, read-out: IC50

Structure (SMILES)	pIC50 [1]	pIC50
[2H]C([2H])([2H])c1nnc(-c2ccc(C(=O)N(c3nccc4cc(F)cc(C)c34)[C@@H]3CCCNC3)c(F)c2)s1 [Example 767, 2-fluoro-N-(6-fluoro-8-methyl-1-isoquinolyl)-N-[(3R)-3-piperidyl]-4-[5-(trideuteriomethyl)-1,3,4-thiadiazol-2-yl]benzamide]	6.89	
Cc1csc2ccnc(N(C(=O)c3ccc(-c4cc(Cl)cnn4)cc3F)[C@@H]3CCCNC3)c12 [Example 768, (R)-4-(5-chloropyridazin-3-yl)-2-fluoro-N-(3-methylthieno[3,2-c]pyridin-4-yl)-N-(piperidin-3-yl)benzamide]	7.04	
Cc1cc(Cl)cc2ccnc(N(C(=O)c3ccc(-c4cc(Cl)cnn4)cn3)[C@@H]3CCCNC3)c12 [Example 769, (R)—N-(6-chloro-8-methylisoquinolin-1-yl)-5-(5-chloropyridazin-3-yl)-N-(piperidin-3-yl)picolinamide]	6.92	
Cc1cc(F)cc2ccnc(N(C(=O)c3ccc(-c4nnn(C)c4C)cc3)[C@@H]3CCCNC3)c12 [Example 770, (R)-4-(1,5-dimethyl-1H-1,2,3-triazol-4-yl)-N-(6-fluoro-8-methylisoquinolin-1-yl)-N-(piperidin-3-yl)benzamide]	6.37	
Cc1cc(Cl)cc2ccnc(N(C(=O)c3ccc(-c4nnn(C)c4C)cc3)[C@@H]3CCCNC3)c12 [Example 771, (R)—N-(6-chloro-8-methylisoquinolin-1-yl)-4-(1,5-dimethyl-1H-1,2,3-triazol-4-yl)-N-(piperidin-3-yl)benzamide]	6.85	
Cc1nnc(-c2ccc(C(=O)N(c3nccc4cc(Cl)cc(C)c34)[C@@H]3CCCNC3)cc2)o1 [Example 772, (R)—N-(6-chloro-8-methylisoquinolin-1-yl)-4-(5-methyl-1,3,4-oxadiazol-2-yl)-N-(piperidin-3-yl)benzamide]	6.89	
Cc1noc(-c2ccc(C(=O)N(c3nccc4cc(Cl)cc(C)c34)[C@@H]3CCCNC3)cc2)n1 [Example 773, (R)—N-(6-chloro-8-methylisoquinolin-1-yl)-4-(3-methyl-1,2,4-oxadiazol-5-yl)-N-(piperidin-3-yl)benzamide]	6.72	
Cc1nsc(-c2ccc(C(=O)N(c3nccc4cc(F)cc(C)c34)[C@@H]3CCCNC3)cc2)n1 [Example 774, (R)—N-(6-fluoro-8-methylisoquinolin-1-yl)-4-(3-methyl-1,2,4-thiadiazol-5-yl)-N-(piperidin-3-yl)benzamide]	5.82	
Cc1noc(-c2ccc(C(=O)N(c3nccc4cc(F)cc(C)c34)[C@@H]3CCCNC3)cc2)n1 [Example 775, (R)—N-(6-fluoro-8-methylisoquinolin-1-yl)-4-(3-methyl-1,2,4-oxadiazol-5-yl)-N-(piperidin-3-yl)benzamide]	7.00	
Cc1nnc(-c2ccc(C(=O)N(c3nccc4cc(F)cc(C)c34)[C@@H]3CCCNC3)c(F)c2)o1 [Example 776, (R)-2-fluoro-N-(6-fluoro-8-methylisoquinolin-1-yl)-4-(5-methyl-1,3,4-oxadiazol-2-yl)-N-(piperidin-3-yl)benzamide]	6.82	
Cc1noc(-c2ccc(C(=O)N(c3nccc4scc(C)c34)[C@@H]3CCCNC3)c(C)c2)n1 [Example 777, (R)-2-methyl-4-(3-methyl-1,2,4-oxadiazol-5-yl)-N-(3-methylthieno[3,2-c]pyridin-4-yl)-N-(piperidin-3-yl)benzamide]	6.14	
Cc1noc(-c2ccc(C(=O)N(c3nccc4scc(C)c34)[C@@H]3CCCNC3)c(F)c2)n1 [Example 778, (R)-2-fluoro-4-(3-methyl-1,2,4-oxadiazol-5-yl)-N-(3-methylthieno[3,2-c]pyridin-4-yl)-N-(piperidin-3-yl)benzamide]	6.55	
Cc1nsc(-c2ccc(C(=O)N(c3nccc4scc(C)c34)[C@@H]3CCCNC3)c(F)c2)n1 [Example 779, (R)-2-fluoro-4-(3-methyl-1,2,4-thiadiazol-5-yl)-N-(3-methylthieno[3,2-c]pyridin-4-yl)-N-(piperidin-3-yl)benzamide]	5.89	
[2H]C([2H])([2H])c1nnc(-c2ccc(C(=O)N(c3nccc4scc(C)c34)[C@@H]3CCCNC3)c(F)c2)s1 [Example 780, 2-fluoro-N-(3-methylthieno[3,2-c]pyridin-4-yl)-N-[(3R)-3-piperidyl]-4-[5-(trideuteriomethyl)-1,3,4-thiadiazol-2-yl] benzamide]		6.92
Cc1nnc(-c2ccc(C(=O)N(c3nccc4scc(C)c34)[C@@H]3CCCNC3)c(F)c2)s1 [Example 781, (R)-2-fluoro-4-(5-methyl-1,3,4-thiadiazol-2-yl)-N-(3-methylthieno[3,2-c]pyridin-4-yl)-N-(piperidin-3-yl)benzamide]	6.89	
Cc1csc2ccnc(N(C(=O)c3ccc(-c4nnn(C)c4C)cc3F)[C@@H]3CCCNC3)c12 [Example 782, (R)-4-(1,5-dimethyl-1H-1,2,3-triazol-4-yl)-2-fluoro-N-(3-methylthieno[3,2-c]pyridin-4-yl)-N-(piperidin-3-yl)benzamide]	6.92	
Cc1nnc(-c2ccc(C(=O)N(c3nccc4cccc(C)c34)[C@@H]3CCCNC3)nc2)s1 [Example 783, (R)-5-(5-methyl-1,3,4-thiadiazol-2-yl)-N-(8-methylisoquinolin-1-yl)-N-(piperidin-3-yl)picolinamide]	6.74	

Structure (SMILES)	pIC50 [1]	pIC50
Cc1nnc(-c2ccc(C(=O)N(c3nccc4cc(F)cc(C)c34)[C@@H]3CCCNC3)nc2)s1 [Example 784, (R)—N-(6-fluoro-8-methylisoquinolin-1-yl)-5-(5-methyl-1,3,4-thiadiazol-2-yl)-N-(piperidin-3-yl)picolinamide]	6.54	
Cc1cc(F)cc2ccnc(N(C(=O)c3ccc(-c4cn(C)nn4)cn3)[C@@H]3CCCNC3)c12 [Example 785, (R)—N-(6-fluoro-8-methylisoquinolin-1-yl)-5-(1-methyl-1H-1,2,3-triazol-4-yl)-N-(piperidin-3-yl)picolinamide]	6.64	
Cc1cccc2ccnc(N(C(=O)c3ccc(Nc4nccc(NCc5ccccc5)n4)cc3F)[C@@H]3CCCNC3)c12 [Example 786, (R)-4-((4-(benzylamino)pyrimidin-2-yl)amino)-2-fluoro-N-(8-methylisoquinolin-1-yl)-N-(piperidin-3-yl) benzamide]	6.92	
O=C(c1ccc(Nc2ncc(F)cn2)cc1F)N(c1nccc2cc(F)ccc12)[C@@H]1CCCNC1 [Example 787, (R)-2-fluoro-N-(6-fluoroisoquinolin-1-yl)-4-((5-fluoropyrimidin-2-yl)amino)-N-(piperidin-3-yl)benzamide]	5.52	
Cc1nnc(-c2ccc(C(=O)N(c3nccc4cc(Cl)ccc34)[C@@H]3CCCNC3)c(F)c2)o1 [Example 788, (R)—N-(6-chloroisoquinolin-1-yl)-2-fluoro-4-(5-methyl-1,3,4-oxadiazol-2-yl)-N-(piperidin-3-yl)benzamide]	6.01	
Cc1cccc2ccnc(N(C(=O)c3ccc(-c4nnc(C5CC5)o4)cc3)[C@@H]3CCCNC3)c12 [Example 789, (R)-4-(5-cyclopropyl-1,3,4-oxadiazol-2-yl)-N-(8-methylisoquinolin-1-yl)-N-(piperidin-3-yl)benzamide]	7.01	
Cc1cccc2ccnc(N(C(=O)c3ccc(-c4nnc(C5CC5)s4)cc3)[C@@H]3CCCNC3)c12 [Example 790, (R)-4-(5-cyclopropyl-1,3,4-thiadiazol-2-yl)-N-(8-methylisoquinolin-1-yl)-N-(piperidin-3-yl) benzamide]	6.62	
CCc1nnc(-c2ccc(C(=O)N(c3nccc4cccc(C)c34)[C@@H]3CCCNC3)cc2)s1 [Example 791, (R)-4-(5-ethyl-1,3,4-thiadiazol-2-yl)-N-(8-methylisoquinolin-1-yl)-N-(piperidin-3-yl) benzamide]	6.85	
Cc1nnc(-c2ccc(C(=O)N(c3nccc4cccc(C)c34)[C@@H]3CCCNC3)cc2)s1 [Example 792, (R)-4-(5-methyl-1,3,4-thiadiazol-2-yl)-N-(8-methylisoquinolin-1-yl)-N-(piperidin-3-yl) benzamide]	6.80	
Cc1cc(Cl)cc2ccnc(N(C(=O)c3ccc(Nc4ncccn4)cc3F)[C@@H]3CCCNC3)c12 [Example 793, N-(6-chloro-8-methyl-1-isoquinolyl)-2-fluoro-N-[(3R)-3-piperidyl]-4-(pyrimidin-2-ylamino)benzamide]	6.70	
O=C(c1ccc(Nc2ncccn2)cc1F)N(c1nccc2cc(Cl)ccc12)[C@@H]1CCCNC1 [Example 794, (R)—N-(6-chloroisoquinolin-1-yl)-2-fluoro-N-(piperidin-3-yl)-4-(pyrimidin-2-ylamino)benzamide]	5.89	
Cn1cc(-c2ccc(C(=O)N(c3nccc4scc(Cl)c34)[C@@H]3CCCNC3)c(F)c2)nn1 [Example 795, (R)—N-(3-chlorothieno[3,2-c]pyridin-4-yl)-2-fluoro-4-(1-methyl-1H-1,2,3-triazol-4-yl)-N-(piperidin-3-yl)benzamide]	6.89	
Cc1cc(C2CCN(C(=O)N(c3nccc4scc(C)c34)[C@@H]3CCCNC3)CC2)on1 [Example 796, (R)-4-(3-methylisoxazol-5-yl)-N-(3-methylthieno[3,2-c]pyridin-4-yl)-N-(piperidin-3-yl)piperidine-1-carboxamide]	6.29	
Cc1cc(-c2ccc(C(=O)N(c3nccc4scc(C)c34)[C@@H]3CCCNC3)nc2)on1 [Example 797, (R)-5-(3-methylisoxazol-5-yl)-N-(3-methylthieno[3,2-c]pyridin-4-yl)-N-(piperidin-3-yl)picolinamide]	6.77	
Cc1nnc(-c2ccc(C(=O)N(c3nccc4scc(C)c34)[C@@H]3CCCNC3)cc2)s1 [Example 798, (R)-4-(5-methyl-1,3,4-thiadiazol-2-yl)-N-(3-methylthieno[3,2-c]pyridin-4-yl)-N-(piperidin-3-yl)benzamide]	7.09	
Cc1csc2ccnc(N(C(=O)c3ccc(-c4cn(C)nn4)cc3)[C@@H]3CCCNC3)c12 [Example 799, (R)-4-(1-methyl-1H-1,2,3-triazol-4-yl)-N-(3-methylthieno[3,2-c]pyridin-4-yl)-N-(piperidin-3-yl)benzamide]	7.10	
